Results published in EP4574151A1, “INHIBITORS OF G12V-MUTATED RAS PROTEIN TO TREAT CANCER” (Personather Spolka Z Ograniczona Odpowiedzialnoscia, priority 2023, dated 2025).
Entries after “also recorded” stand apart in the source; their conditions may differ.

System: PER49 cell line
Assay: Western Blot analysis of the RAS-controlled signal transduction pathway in a normal cell line
Format: cell-based
Conditions: normal PER49 cell line without KRASG12V; 10, 15 and 20 µM; 24 hours; serum-free; ERK, p-ERK, Akt, pAkt blots
Excerpt: Analysis of the impact of the studied compound on the signal transduction pathway controlled by RAS family proteins in normal cell lines based on Western Blot analysis.
The example illustrates the impact of the PER154A and PER160A molecules on the signal transduction pathway in the normal PER49 cell line.
• 1. PER49 cell line cells at 80-90% confluency were rinsed with phosphate-buffered saline without Mg2+ and Ca2+ ions. Remove PBS. • 2. Cells were detached from the vessel using Trypsin-EDTA (0.05%, 1x) for 1-3 minutes at 37°C. • 3. Cells were transferred to a 15 ml tube, centrifuged (200xg, 4 minutes) and suspended in RPMI1640 medium with 10% bovine serum and antibiotics. • 4. Cells were counted. • 5. 3x10^5cells were added to each well of a 6-well plate for adherent culture. • 6. The above medium was added and left for approximately 24 hours.
• 7. The cells were washed 2-3 times with buffered saline without Mg2+ and Ca2+ ions. Each time PBS was thoroughly removed. • 8.2 ml of RPMI1640 medium with antibiotics and without serum was added, and left for approximately 24 hours.
• 9. The cells were washed 2-3 times with a buffered saline solution without Mg2+ and Ca2+. PBS was thoroughly removed each time. • 10. […]

Row | Structure (SMILES) | influence on the signal transduction pathway
1 | O=C(Nc1ccc(F)cc1)c1ccc2c(c1)C1C3CCC(C3)C1C(c1ccccc1)N2 (centres unmarked) [PER160A] | No impact; also recorded: does not show any influence
2 | O=C(Nc1ccc2c(c1)OCCO2)c1ccc2c(c1)C1C3CCC(C3)C1C(c1ccccc1)N2 (centres unmarked) [PER154A] | No impact; also recorded: does not show any influence
